Test results from patent publication US20120115806A1 (SANOFI, priority 2009, published 2012).

What was measured:
[1] = tested on: patients with metastatic breast cancer; experiment: Phase I/II study: tolerance and treatment characteristics
Description: Part 2: the antitumor activity and the characterization of the tolerance profile were determined at the recommended dose.
The capecitabine is administered orally twice a day, in the morning and evening, from day D1 to day D14 (from the 1st to the 14th day of the cycle).
The doses could be reduced and the treatment cycle duration could be extended in the case of a severe adverse event (AE). The treatment was continued until disease progression, the presence of an unacceptable AE or the withdrawal of patient consent.
A physical examination, complete differential leukocyte and blood counts, and blood chemistry analyses were carried out before the recruitment of the patients and regularly during treatment. Tumor evaluation by radiology was carried out at recruitment of the patients and every 6 weeks. The responses were confirmed by 2 evaluations at least 4 weeks apart. Supplementary data were collected every 6 weeks until the date the study was stopped.

[2] = tested on: Thymidine Phosphorylase (TP) expression in MCF-7 breast carcinoma cells; conditions: especially with MCF-7 breast carcinoma cells; abstract, French Pharmacology Society Conference 2008; cited from earlier work
[3] = Phase I/II study: pharmacokinetics and drug interaction study; conditions: patients, part 1; parent and metabolite
[4] = tested on: taxane-resistant metastatic breast cancer; conditions: 1-h i.v. infusion every 3 weeks; Ann. Oncol. 2008, 19(9), 1547-1552; cited from earlier work
[5] = tested on: patients with metastatic breast cancer previously treated with anthracyclines and taxanes; conditions: cabazitaxel (D1) in combination with capecitabine (twice a day, D1-14)
Excerpt: The main inclusion criteria were an age of 18 or older, a histologically proven metastatic or locally recurrent breast cancer that was inoperable, an Eastern Cooperative Oncology Group performance status (ECOG PS) of 0 to 2, prior exposure to taxanes and to anthracyclines, and adequate hematological, renal and hepatic function.
The main exclusion criteria were a simultaneous cancer, more than one chemotherapy treatment for metastatic cancer, prior exposure to capecitabine, or uncontrolled significant comorbid conditions.
Thirty-three patients with metastatic breast cancer were included in the study, all previously treated with anthracyclines and taxanes: 15 patients for part 1 and 18 for part 2.
The dose-limiting toxicities (DLTs), i.e. the list of events to be monitored, which make it possible to guide the dose escalation, were first of all predefined in the protocol in accordance with the NCI-CTCAE classification scale, version 3.
The increase in doses was studied in groups of three patients as long as no DLT was observed.

[6] = DL2: 20 mg/m^2 cabazitaxel + 2 × 1000 mg/m^2/day capecitabine for 14 days, 21 patients
[7] = Total, all dose levels, 33 patients

Compound	Number of patients with dose reduction [1, 6]	Number of patients with dose reduction [1, 7]	induction of TP expression [2]	pharmacokinetics affected by coadministration of the other agent [3]	efficacy in taxane-resistant metastatic breast cancer [4]	maximal administered dose (MAD) [5] [mg/m^2]	recommended dose (RD) ([5]; highest dose at which less than 33% of patients exhibited a DLT) [mg/m^2]
4α-acetoxy-2α-benzoyloxy-5β,20-epoxy-1β-hydroxy-β,10β-dimethoxy-9-oxotax-11-en-13α-yl (2R,3S)-3-tert-butoxycarbonylamino-2-hydroxy-3-phenylpropionate [cabazitaxel]	4	10	induces TP expression	do not appear to be affected	can be effective		
CCCCCOC(=O)Nc1nc(=O)n([C@@H]2O[C@H](C)[C@@H](O)[C@H]2O)cc1F [capecitabine, 5′-deoxy-5-fluoro-N4-(pentyloxycarbonyl)cytidine N-[1-(5-deoxy-beta-D-ribofuranosyl)-5-fluoro-2-oxo-1,2-dihydropyrimidin-4-yl]carbamic acid pentyl ester]	3	7		vice versa		1000	1000
